Read-outs that look alike come from different tables or passages of the source.
How the values were obtained:
[1] = test system: Wolbachia in C6/36 (wAlbB) cells; assay: Secondary concentration response HTS (IC50) anti-Wolbachia screen in C6/36 (wAlbB) insect cells; format: cell-based, Wolbachia pipientis wAlbB (in Aedes albopictus C6/36 cells); conditions: Wolbachia, 168 h, 7-day incubation, 10-point concentration range
Method: Initially C6/36 (wAlbB) cells (insect cells stably infected with the Wolbachia target) from a single cryopreserved batch were recovered over 7 days prior to plating into 384-well assay ready plates (containing the test compounds), using a semi-automated process allowing for daily batches of ~150 plates, set up 4 days per week for 8 weeks. After a 7-day incubation period with the test compounds the plates were moved into the second fully automated stage (using the Agilent Technologies BioCel system) involving formaldehyde fixation, DNA staining of the insect cell nuclei (Hoechst) for toxicity analysis and antibody staining specific to the intracellular Wolbachia (wBmPAL primary antibody and far-red secondary antibody). In the final stage the fixed and stained plates from stage 2 were processed through automated data acquisition (High Res Biosolutions system, incorporating EnVision™ and acumen® plate readers). This industry standardised assay was then used to screen AstraZeneca’s full library of 1.3 million compounds within 10 weeks. In total this HTS included 30 × 3 week assays covering 3835 × 384-well plates. This primary HTS generated 20,255 hits defined as >80% reduction in Wolbachia with <60% toxicity to the host insect cell (eliminating false positives). This represents an overall hit rate of 1.56%. These compounds are depicted in chemical space in Fig. 2 (black points)[21].
The mosquito (Aedes albopictus) derived cell line C6/36 (ATCC® CRL 1660), stably infected with Wolbachia pipientis wAlbB (C6/36(wAlbB)), was maintained in Leibovitz L15 medium containing 2 mM L-glutamine, 1% nonessential amino acids, 2% tryptose phosphate broth and 20% heat-inactivated foetal bovine serum (FBS) at 26 °C[18]. This screen exclusively used cells from the large-scale cryopreserved batch produced as part of this campaign by culturing the cells at scale before cryopreservation (90% FBS and 10% DMSO). This produced a cell bank of 190 × 1 ml cryovials containing 3 × 10^7 cells per vial.
On day 0, a single cryovial was recovered and the cells washed before being transferred to a T225 cm^2 flask. After a 7-day recovery Wolbachia infection level (quality control (QC)) was checked by SYTO®11 DNA staining of both the host cell nuclei and intracellular Wolbachia. The end-point read out from the Operetta® high content imaging system (Perkin Elmer) was the percentage of cells infected with Wolbachia. This was obtained from cytoplasm texture analysis by the associated Harmony® software. Cells with a >50% of the population infected with Wolbachia were classed as having a good Wolbachia level and therefore used for screening through addition of 2000 cells per well into assay ready 384-well plates containing the test compounds. […] Each plate included on-board controls; vehicle/DMSO (total/maximum Wolbachia signal) or doxycycline 5 µM (null/minimum Wolbachia signal), resulting in single shot screening of 352 compounds per plate for the primary screen. […] QC plates were also created including full columns of the following controls; DMSO (total/max), 5 μM doxycycline (null/min), as well as 50 nM doxycycline (reference/medium Wolbachia signal). Daily batches contained ~150 compound plates in addition to the QC plates. Each compound plate was foil sealed before incubation for 7 days at 26 °C, 95% humidity and atmospheric air.
After 7 days of drug incubation, the plates were loaded into the fully automated BioCel system which performed the following additions; fixation and DNA staining (1.8% formaldehyde + 0.6 µg/ml Hoechst 33342, 20 min), permeabilisation (80 μl of PBS + 0.25% Triton-X 100, 30 min), blocking (PBS + 6% BSA, 40 min), overnight incubation in the Wolbachia-specific anti-wBmPAL primary antibody[34] […]

[2] = test system: Wolbachia within Brugia malayi Mf; assay: B. malayi microfilarial (Mf) in vitro anti-Wolbachia assay (wsp:gst qPCR); format: cell-based
Method: The Mf were obtained by peritoneal lavage, using a catheter, of gerbils (Meriones unguiculatus) harbouring a patent infection of B. malayi. Mf were purified using a PD-10 desalting column (Fisher), centrifuged (311 RCF for 5 min at room temperature) before the addition of 8000 Mf/well of a 96-well plate (100 µl per well) in complete media consisting of RPMI supplemented with 10% FBS, 1% penicillin streptomycin and 1% amphotericin B. […] Each plate contained doxycycline (5 µM) and DMSO controls. After incubation at 37 °C for 6 days in 5% CO2, visual assessment of Mf motility was performed and scored from 0 to 4 per well (where 0 = no movement and 4 = highly motile). DNA extraction per sample was performed using the QIAmp DNA Mini Kit before quantitative PCR was performed to obtain the ratio of Wolbachia Surface Protein gene copy number (wsp) to Glutathione S-Transferase gene copy number (gst)[36]. The DNA was amplified using the primers as indicated in Supplementary Table 6.
The wsp:gst ratio data allowed for normalisation of the Wolbachia level to the Mf biomass for each well. The change in wsp:gst for each compound compared to the DMSO control was calculated before normalisation to the onboard doxycycline control to allow for inter-assay comparison.

[3] = Brugia malayi, 144 h, B. malayi Mf, 6 days, read-out: Mf EC50
[4] = category bounds in the picture of Fig. 4, read-out: Mf EC50 (category given in Fig. 4)

Row | EC50 [2, 3] | EC50 [2, 4] | SMILES | IC50 [1] | Mf in vitro potency (in words) [2]
1 | ~219 nM | 200 to 1000 nM | CCc1ccc(CN2CCCC2c2nc(C(=O)N(C)C)cs2)s1 (centres unmarked) [4A, 2-(1-((5-ethylthiophen-2-yl)methyl)pyrrolidin-2-yl)-N,N-dimethylthiazole-4-carboxamide] | 145 nM | good
2 | ~271 nM | 200 to 1000 nM | Cc1nc(C(=O)NC(C)c2ccc(F)cc2)c(NC(=O)Cc2ccccc2)[nH]1 (centres unmarked) [5A, N-(1-(4-fluorophenyl)ethyl)-2-methyl-5-(2-phenylacetamido)-1H-imidazole-4-carboxamide] | 594 nM | comparatively good

The next lines start with the molecule.

Row | SMILES | EC50 [2, 3] | EC50 [2, 4] | IC50 [1] | Mf in vitro potency (in words) [2]
3 | Cc1nccc(N2CCC(C(=O)N(C)CCN(C)S(=O)(=O)c3ccc(Br)cc3)CC2)n1 [1A, N-(2-((4-bromo-N-methylphenyl)sulfonamido)ethyl)-N-methyl-1-(2-methylpyrimidin-4-yl)piperidine-4-carboxamide] | ~161 nM | < 200 nM | 184 nM | –
4 | COc1ccc(CC(=O)Nc2[nH]nc(C)c2-c2ccccc2)c(Cl)c1 [2A, 2-(2-chloro-4-methoxyphenyl)-N-(3-methyl-4-phenyl-1H-pyrazol-5-yl)acetamide] | 164 nM | < 200 nM | 2390 nM | –
5 | CC1COCCN1c1cc(OCc2ccccc2)nc(-c2nccn2C)n1 (centres unmarked) [3A, 4-(6-(benzyloxy)-2-(1-methyl-1H-imidazol-2-yl)pyrimidin-4-yl)-3-methylmorpholine] | ~183 nM | < 200 nM | 968 nM | –

— PMC6315057, “Industrial scale high-throughput screening delivers multiple fast acting macrofilaricides” (Nature Communications, 2019)
